From patent publication US20220362182A1, “METHODS FOR REVERSING HEPATIC STEATOSIS” (BRIGHTSEED, INC., priority 2020, published 2022)
“Also recorded” adds a separate entry of the source. Where two headings read alike, the source gives them in different places.

Key:
[1] = target: T1, PPARγ receptor (Homo sapiens, UniProt P37231); test: assay for PPARγ agonist activity; assay type: cell-based; settings: false-positive counter assay
T1 sequence (P37231 1-505): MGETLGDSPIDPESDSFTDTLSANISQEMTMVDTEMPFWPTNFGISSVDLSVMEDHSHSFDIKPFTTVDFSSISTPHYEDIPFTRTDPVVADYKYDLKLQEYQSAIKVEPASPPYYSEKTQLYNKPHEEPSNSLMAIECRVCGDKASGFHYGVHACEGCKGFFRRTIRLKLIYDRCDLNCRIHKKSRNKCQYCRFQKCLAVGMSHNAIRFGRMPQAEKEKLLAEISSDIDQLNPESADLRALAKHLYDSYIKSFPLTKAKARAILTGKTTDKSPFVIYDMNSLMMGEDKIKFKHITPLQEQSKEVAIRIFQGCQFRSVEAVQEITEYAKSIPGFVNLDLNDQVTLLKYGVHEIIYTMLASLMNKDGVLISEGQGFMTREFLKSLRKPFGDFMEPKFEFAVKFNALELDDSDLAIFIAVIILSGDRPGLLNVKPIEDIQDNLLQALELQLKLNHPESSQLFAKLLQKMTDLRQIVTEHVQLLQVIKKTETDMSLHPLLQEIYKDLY

[2] = test system: HNF4α mRNA; test: HNF4α mRNA qPCR in T6PNE cells; assay type: cell-based, human
Experimental: Quantitative PCR (Q-PCR) from in vitro cell culture experiments used total RNA purified using RNeasy Kits (Qiagen). For liver tissue samples, total RNA was isolated using Trizol (Invitrogen) and prepared for RNAseq (mouse liver DMSO and NCT, N=3). cDNA was amplified using 3 μg of total RNA using qScript cDNA SuperMix (Quanta BioSciences, Beverly, Mass., USA). QPCR analysis was performed using SYBR® Select Master Mix (Applied Biosystems) and ABI 7900HT (Applied Biosystems, Thermo Fisher Scientific). The Ct values of mRNA expression were then normalized to the 18 s rRNA values and are expressed as fold change over samples from mice fed normal chow for in vivo experiments or DMSO controls for cell culture experiments.

[3] = murine PK; settings: mouse, in vivo
Experimental: Murine PK was conducted by WuXi AppTec (Shanghai, China). C57BL/6 male mice of age 7-9 weeks were obtained from SLAC Laboratory Animal Co (Shanghai, China). Mice were fasted for 12 h prior to compound administration. Oral gavage was used for PO dosing. For IV dosing, compound was administered by tail vein injection. For compound concentration determination, 25 μL of blood was collected from the submandibular or saphenous vein and processed for plasma. Plasma concentration of compound was determined by LC-MS/MS.

[4] = animal cells and mice; cited from earlier work
[5] = test system: C57BL/6J DIO mice; test: DIO mice injected IP for 14 days (hepatic steatosis); assay type: in vivo; settings: for serum free fatty acids (FFA): after glucose challenge; for hepatic stored fat by Oil Red O staining: liver sections; for hepatic stored fat by Oil Red O staining / alkaline phosphatase (ALP) / epididymal fat pad weight / hepatic triglyceride content / liver weight / hepatic steatosis: 200 mg/kg; for alkaline phosphatase (ALP) / epididymal fat pad weight / hepatic triglyceride content / liver weight: vs DMSO; for hepatic steatosis: two weeks; for toxicity / general condition: mice, IP, up to the highest dose administered
Experimental: Compounds were injected IP into diet-induced obese mice at a dose of 200 mg/kg bid for two weeks. At that point, mice were sacrificed and organs were harvested for analysis. To test the hypothesis that HNF4a controls hepatic fat storage, N-trans-caffeoyltyramine was administered to C57BL/6J DIO mice maintained on a 60% fat calorie diet. Based upon PK studies with N-trans-caffeoyltyramine, IP injection was chosen for two week for these proof of concept studies. […] It was observed that N-trans-caffeoyltyramine was stimulating lipophagy (FIG. 1A).
Slides containing frozen liver tissue sections from mice were air dried for 10-20 min followed by rehydration in distilled water. Sections were immersed in absolute propylene glycol (Cat #151957, MP Biomedicals, LLC, USA) for 2 min followed by 0.5% in oil red O solution (Cat #K043, Poly Scientific R&D, USA) for 2 h. Slides were then differentiated in 85% propylene glycol solution, washed with dH2O for 2 h, and mounted using glycerin jelly mounting medium. All slides were scanned at a magnification of 20× using the Aperio Scanscope FL system (Aperio Technologies Inc., Vista, Calif., USA). The liver area stained with oil red O was measured using image J software as described, with some modifications. Oil red O-stained liver images were opened in Image J software. Using the Analyze>Set Scale command, the scale bar of the images was set to 200 um. RGB images were then converted into gray scale images using the Image>Type>RGB Stack command and were split into red, blue and green channels. Using the Image>Adjust>Threshold command, the threshold was manually set to highlight the oil red O-stained lipid droplets in the green channel. The same threshold was used for all the images in all treatment groups and the % oil red O-stained area was obtained using the Analyze→Measure tool command. Fold change was calculated by normalizing the values to images from mice fed normal chow.
12-week-old C57BL/6 J DIO male mice (cat #380050) were purchased from Jackson Laboratory and were fed with high fat diet containing 60 kcal % fat (Research Diets cat #D12492). Mice were maintained in a 12-h light/day cycle. After 2 weeks of acclimation, mice with similar body weights were randomly assigned to treatment or control groups.
For dose response experiments, mice were injected intraperitoneally with 10% DMSO as vehicle control or 4 different doses of NCT (30, 60, 120 and 240 mg/kg of body weight) dissolved in 10% DMSO. Mice received 2 doses per day with a 5 h interval between injections for 3 days. To test the effect of NCT (Sundia MediTech Company, Ltd., Custom synthesis), 200 mg/kg was injected IP bid for 14 days. On day 15, mice received a final dose of NCT followed by IP injection with 3 g/kg dextrose. One h later, blood samples were collected and mice were euthanized using pentobarbital. Total mouse, liver and epididymal fat pad weights were measured. Dissected liver samples were washed in cold PBS, cut into small pieces and distributed for analyses. For RNA isolation and ELISA, liver samples were snap frozen using liquid nitrogen and stored at −80° C. For histomorphometry and immunofluorescence analysis, liver samples were fixed in 4% of cold PFA and processed for histology. All animal experiments were approved by the Institutional Animal Care and Use Committee (IACUC) of the Sanford Burnham Prebys Medical Discovery Institute in accordance with national regulations.
The serum FFA level was measured using the Free Fatty Acid Quantification Colorimetric/Fluorometric Kit (Cat #K612, BioVision, USA). Fold change was calculated by normalizing to values from mice fed normal chow.
Serum and liver TG level was measured using the Triglyceride calorimetric Assay Kit (Cat #10010303, Cayman Chemicals, USA). Fold change was calculated by normalizing the values from normal chow mice. […]

[6] = listed as N-trans-caffeoyltyramine
[7] = DIO mice, 200 mg/kg bid IP, 14 days
[8] = DIO mice, 200 mg/kg bid IP, 14 days, listed as N-trans-caffeoyltyramine

**Q.** Which results are given for COc1cc(/C=C/C(=O)NCCc2ccc(O)cc2)ccc1O [NFT, N-trans feruloyltyramine]?
**A.** PPARγ receptor agonist activity [1]: no estrogenic or PPARγ receptor agonist activity; HNF4α mRNA [2]: increased; also recorded: induced HNF4α expression; oral bioavailability [3]: poor oral bioavailability; anti-inflammatory properties [4]: anti-inflammatory properties

**Q.** With O=C(/C=C/c1ccc(O)c(O)c1)NCCc1ccc(O)cc1 [NCT, N-trans-caffeoyltyramine] as the compound, how does the “PPARγ receptor agonist activity” value [1] read?
**A.** Its value is “no estrogenic or PPARγ receptor agonist activity”.

**Q.** And the “HNF4α mRNA” value [2]?
**A.** The value was “increased; also recorded: induced HNF4α expression”.

**Q.** And the “HNF4α mRNA” value [2, 6]?
**A.** Its value is “induces the expression of HNF4a mRNA”.

**Q.** What about the “color of the liver” value [5, 7] of the same compound?
**A.** Its value is “shift in the color of the liver from yellow to red”.

**Q.** What about the “other markers of liver function in the VetScan panel” value [5, 7] of the same compound?
**A.** Its value is “no change”.

**Q.** And the “serum free fatty acids (FFA)” value [5, 7]?
**A.** Its value is “induced an increase in free fatty acids”.

**Q.** What about the “serum free fatty acids (FFA)” value [5, 8] of the same compound?
**A.** Its value is “induced an increase in free fatty acids; also recorded: Serum FFA were increased”.

**Q.** And the “hepatic stored fat by Oil Red O staining” value [5, 7]?
**A.** The value was “decrease in stored fat by Oil Red O staining”.

**Q.** And the “hepatic stored fat by Oil Red O staining” value [5, 8]?
**A.** Its value is “decrease in stored fat by Oil Red O staining; also recorded: significantly reduced the Oil Red O”.

**Q.** And the “alkaline phosphatase (ALP)” value [5, 7]?
**A.** Its value is “decreased ALP; also recorded: decrease in ALP”.

**Q.** What about the “epididymal fat pad weight” value [5, 7] of the same compound?
**A.** Its value is “increase in epididymal fat pad mass; also recorded: increased weight”.

**Q.** What about the hepatic triglyceride content [5, 7] of the same compound?
**A.** Its hepatic triglyceride content is “reduction in the hepatic triglyceride content”.

**Q.** And the liver weight [5, 7]?
**A.** The liver weight was “weighed less than those of the control mice”.

**Q.** And the “alkaline phosphatase (ALP)” value [5, 8]?
**A.** The value was “ALP was decreased”.

**Q.** What about the “epididymal fat pad weight” value [5, 8] of the same compound?
**A.** Its value is “increase in epididymal fat pad mass; also recorded: increase in epididymal fat pad weight”.

**Q.** And the hepatic triglyceride content [5, 8]?
**A.** Its hepatic triglyceride content is “hepatic triglyceride content was decreased; also recorded: significantly reduced”.

**Q.** What about the liver weight [5, 8] of the same compound?
**A.** Its liver weight is “weighed less than those of the control mice; also recorded: decreased liver weight”.

**Q.** And the body weight gain ([5]; DIO mice, 200 mg/kg bid IP, 14 days, vs control)?
**A.** The body weight gain was “gained weight to a similar degree”.

**Q.** And the hepatic steatosis ([5]; DIO mice, 200 mg/kg bid IP)?
**A.** The hepatic steatosis was “reversed hepatic steatosis; also recorded: reversal of hepatic steatosis; also recorded: reduction of steatosis”.

**Q.** What about the hepatic steatosis ([5]; DIO mice, 200 mg/kg bid IP, listed as N-trans-caffeoyltyramine) of the same compound?
**A.** Its hepatic steatosis is “reverses hepatic steatosis”.

**Q.** What about the “serum TG at week 1” value ([5]; DIO mice, 200 mg/kg bid IP, week 1) of the same compound?
**A.** The value was “increased”.

**Q.** And the “serum TG at week 2” value ([5]; DIO mice, 200 mg/kg bid IP, week 2, end of the study)?
**A.** Its value is “not at week 2”.

**Q.** What about the “toxicity / general condition” value [5] of the same compound?
**A.** The value was “remained healthy and active; also recorded: unable to establish a maximum tolerated dose because of the lack of toxicity; also recorded: completely nontoxic at the highest dose administered”.

**Q.** What about the “toxicity / general condition” value [5, 6] of the same compound?
**A.** The value was “remained healthy and active”.

**Q.** What about the oral bioavailability [3] of the same compound?
**A.** The oral bioavailability was “poor oral bioavailability”.

**Q.** And the anti-inflammatory properties [4]?
**A.** Its anti-inflammatory properties is “anti-inflammatory properties”.
